Laboratory results reported in US11752125B2, “Anti-neuroinflammatory and protective compounds in Achillea fragrantissima” (THE STATE OF ISRAEL MINISTRY OF AGRICULTURE & RURAL …, priority 2013, dated 2023).

How the values were obtained:
[1] = test system: microglial cells; assay: Viability of LPS-activated microglial cells (MTT); assay type: cell-based, rat; conditions: MTT 20 hr later
Protocol: Microglial cells were activated with LPS in the presence or absence of different concentrations of 3,5,4′-trihydroxy-6,7,3′-trimethoxyflavone. Cell viability was determined (using MTT) 20 hr later.

[2] = test system: CREB; assay: H2O2-induced CREB phosphorylation in astrocytes (ELISA); assay type: cell-based, rat; conditions: astrocytes pretreated 2 h, H2O2 175 μM 30 min; total CREB not affected
Protocol: Astrocytes were treated with TTF 2 h before the addition of H2O2. Cells were lysed 40 minutes after the addition of H2O2 in lysis buffer supplied by PathScan sandwich ELISA kit (Cell Signaling TECHNOLOGY) according to the manufacturer's protocol. Protein concentrations in cell lysates were determined by Bradford reagent (Bio-Rad, Hercules, Calif.), and equal amounts of proteins were subjected to ELISA. To measure the amount of total and phosphoSAPK/JNK in cell lysates of astrocytes, ELISA was performed according to the manufacturer's protocol using the PathScan total SAPK/JNK sandwich ELISA kit (Cell Signaling TECHNOLOGY) and the PathScan phospho-SAPK/JNK (Thr183/Tyr185) sandwich ELISA kit (Cell Signaling TECHNOLOGY), respectively. […] The optical density was determined at 450 nm using a microplate reader.
1. […] Determine the optical density at 450 nm using a microplate reader.
Astrocytes were treated with 175 μM of H2O2 for 30 min following preincubation with TTF for 2 h. The levels of phosphorylated and total CREB were measured by ELISA. […]

[3] = test system: microglial cells; assay: Cytotoxicity in LPS-activated microglial cells (LDH); assay type: cell-based, rat; conditions: LPS 4.5 ng/mL, 20 h
Protocol: Cell viability was determined using a commercial colorimetric assay (Roche Applied Science, Germany) which measures Lactate Dehydrogenase (LDH) activity released from the cytosol of damaged cells into the incubation medium. The absorbance was measured at 492 nm in a plate reader. The percentage of cytotoxicity was calculated according to the following equation, where the LDH activity released from the untreated cells is the spontaneous LDH release, and the maximum releasable LDH in the cells is the:
In FIG. 21 A, microglial cells were treated with different concentrations of achillolide A, dexamethasone or memantine (as reference drugs) and were concomitantly activated by LPS (4.5 ng/mL) for 20 h. Cell conditioned supernatants were collected, and the levels of NO were measured using Griess reaction. Cytotoxicity was measured using the LDH method (FIG. 21B). Values represent the mean±SEM (n=12 for each treatment). ** p<0.01; ***p<0.001 relative to cells that were treated to LPS only.

[4] = test system: microglial cells; assay: Viability of microglial cells in MMP-9 experiments (crystal violet); assay type: cell-based, rat; conditions: 24 h
Protocol: [formula] In MMP-9 experiments and in the cellular antioxidant activity (CAA) assays, cell viability was determined by a modification of the crystal violet assay. Microglial cells were treated with the indicated concentrations of achillolide A, followed by stimulation with LPS (4.5 ng/mL). Conditioned media were collected 24 h later and tested for MMP-9 activity by gel zymography as shown in FIG. 23 A. The zymogram represents two independent experiments. The levels of MMP-9 transcripts were measured by quantitative real-time PCR. The results from three technical replicates were normalized to β-actin and are expressed as relative quantity of MMP-9 transcripts in FIG. 23 B. The results are means±SD of one representative experiment out of three experiments. Cell viability was determined 24 h later by the crystal violet assay. Values represent the means±SEM (n=4 for each treatment).

[5] = test system: primary astrocytes; conditions: Nones et al., 2012; cited from earlier work

For COc1cc(-c2oc3cc(OC)c(OC)c(O)c3c(=O)c2O)ccc1O [TTF, 3,5,4′-trihydroxy-6,7,3′-trimethoxyflavone], the “cytotoxicity to microglial cells” value [1] was “not cytotoxic” and the “inhibition of H2O2-induced phosphorylation of CREB” value [2] was 80%.
In the case of C=C1CCC2=C(CO)C(=O)O[C@H]2/C=C(\C)[C@H](OC(C)=O)CC1=O [achillolide A], the “cytotoxic effect in activated microglial cells” value [3] is reported as “without a significant cytotoxic effect” and the “toxicity in MMP-9 experiments” value [4] is reported as “no toxicity was observed”.
In the case of O=c1c(O)c(-c2ccc(O)c(O)c2)oc2cc(O)cc(O)c12 [quercetin, 3,3′,4′,5,7-Pentahydroxyflavone, reference compound], the “nontoxic concentration in primary astrocytes” value [5] is listed as “up to 100 μM”.
